Literature values in patent publication US9173850B2, “4-methylpyrazole formulations” (RAPTOR PHARMACEUTICALS INC., priority 2009, dated 2015).

Tested on: ethanol intolerance
Details: doses below 10 mg/kg; subjects with reduced or absent ALDH activity who have consumed alcohol

SMILES: Cc1cn[nH]c1 [Formulation 4-MP, 4-Methylpyrazole]
- Effectiveness in treating ethanol intolerance or symptoms of aldehyde accumulation: effective
